Test results: US12138256B2, “Treatment of cardiopulmonary disorders” (Bayer Aktiengesellschaft, priority 2021, dated 2024)

What was measured:
[1] = tested on: PAH minipig model; assay: Deposited lung dose (absorbing filters) in PAH minipig model and prediction of human dose and duration of effect; type: in vivo, Göttingen minipig
Description: The anesthetized thromboxane A2 challenged PAH-minipig model (see experimental part C-2.1) is considered to be the most relevant and sensitive model for the prediction of the human minimal effective and effective doses (MED, ED). To determine effective LDs, experiments in minipigs were repeated with the difference that absorbing filters were attached at the end of the tubes to determine the deposited lung dose. […] Assuming a minimal effective ND of 3 μg/kg (5% reduction in PAP) the minimal effective deposited LD is considered as 0.15 μg/kg (see FIG. 1).
The resulting lung deposited doses in the minipig of 0.15, 0.5, 1.5 and 5 μg/kg were multiplied by 60 kg to achieve the lung dose in humans. Thus, the FPD reflecting the PAP reduction for a 60 kg human are calculated to be 9, 30, 90 and 300 μg.
Thus, via a direct up-scaling from minipig, the predictive MED (5% PAP reduction) for a human based on a 60 kg body weight is calculated to be 9 μg LDD, not considering protein binding within the respiratory tract. As a surrogate for unbound concentrations, which are the likely active concentrations in the lung, we considered respective differences in fractions unbound in plasma of minipig and human. This consideration results in a minimum effective lung dose (LD) for a 60 kg participant of 41 μg LDD for the assumed 5% reduction on PAP. Consequently, the predictive minimal human effective dose is in the range from 9 μg LDD to 41 μg LDD based on a 60 kg body weight (see FIG. 2).
This translation was also conducted for effective doses (effective PAP reduction>five up to 35 percent for longer time periods up to the complete observation period of 4 hrs) based on the relative lung deposited doses in minipigs as listed in Table 2.
For DPI products, it is assumed that the fine particle dose (FPD) is basically equivalent to the human lung deposited dose.
With respect to a prediction of the duration of action for human studies comparative example 11 was compared in the PAH minipig model after inhaled application to Ventavis® (=Iloprost, 10 μg/kg nominal dose), which we used as a clinical reference. […] Therefore the duration of action is more than 6 times longer compared to Ventavis in this preclinical animal model.
In order to generate a human dose estimate, experiments in the PAH minipig model for comparative example 11 were repeated with the difference that absorbing filters were attached at the end of the tubes to determine the deposited lung dose. […] The arithmetic mean of the aerosol fraction deposited on the filters is 5% based on all results of the filter experiments, resulting in relative lung deposited doses of about 0.15 μg/kg (3 μg/kg nominal dose), 0.5 μg/kg (10 μg/kg nominal dose), 1.5 μg/kg (30 μg/kg nominal dose) and 5 μg/kg (100 μg/kg nominal dose). Assuming a minimal effective nominal dose of 3 μg/kg for a 5% reduction in PAP and a mean nebulization efficiency of 5%, the minimal effective deposited lung dose is considered as 0.15 μg/kg based on the PAH minipig model. Therefore, for a human patient of 60 kg body weight a minimal effective lung deposited dose of 9-41 μg, depending on whether or not an effect of different protein binding (see table 2.1.5) is postulated. Considering 100 μg/kg as effective dose in the minipig model, 300-1370 μg lung deposited dose is postulated as effective dose, again depending on the consideration of different interspecies protein binding.

[2] = tested on: guinea pig trachea pre-contracted with carbachol; assay: Bronchorelaxation in vitro: carbachol pre-contracted guinea pig trachea rings, wash-out recovery factor (C-3.1); settings: 1 μmol/l
Description: Male Dunkin Hartley guinea pig were euthanized using carbon dioxide. The primary bronchus was removed and placed in ice-cold Krebs-Henseleit buffer of following composition (in mmol/l): […] For recording of isometric tension, the bronchial rings were mounted between two hooks. One hook was connected to a force transducer the other was moveable and allowed a precise adjustment of resting tension at 1.5 g. During the equilibration period of 60 min the tissue was washed every 20 min with buffer. […] After 30 min, a cumulative dose response curve of the test compound was constructed. Every concentration was incubated till the response was stable. […] The relaxation was expressed as percentage tension. […] The recovery factor was calculated as a ratio of bronchodilation 1 h after compound application and bronchodilation 1 h after removal (wash out) of test compound. […] Relaxation via Cinaciguat (comparative example 1) and Riociguat (comparative example 2) reached a steady state within the 1 h incubation time. […] In contrast, relaxation induced by comparative example 11 was further progressing during the wash out period (recovery factor 1.41).

[3] = minipig 0.15 μg/kg lung deposited (3 μg/kg nominal dose)
[4] = minipig 0.50 μg/kg lung deposited (10 μg/kg nominal dose)
[5] = minipig 1.5 μg/kg lung deposited (30 μg/kg nominal dose)
[6] = minipig 5.0 μg/kg lung deposited (100 μg/kg nominal dose)

SMILES: O=C(O)c1ccc(CCN(CCc2ccccc2OCc2ccc(-c3ccc(C(F)(F)F)cc3)cc2Cl)[C@H]2CCCc3nc(C(=O)O)ccc32)cc1 [comparative example 11, (5S)-5-{[2-(4-carboxyphenyl)ethyl][2-(2-{[3-chloro-4′-(trifluoromethyl)[biphenyl]-4-yl]methoxy}phenyl)ethyl]amino}-5,6,7,8-tetrahydroquinoline-2-carboxylic acid]
- minimal effective deposited lung dose ([1]; 5% reduction in PAP, mean nebulization efficiency 5%, minipig): 0.15 µg/kg
- minimal effective nominal dose (MED) ([1]; 5% reduction in PAP, nebulized liquid solution, minipig): 3 µg/kg
- predictive minimal human effective lung deposited dose ([1]; 60 kg body weight, 5% PAP reduction, without/with protein binding difference): 9 to 41 µg
- effective lung deposited doses in humans expected from minipig data ([1]; 60 kg human): 9 to 1370 µg
- supposed duration of action in humans ([1]; assumption that duration is comparable between PAH minipig model and humans): at least 6 hours
- lung deposited dose postulated as effective dose in humans ([1]; considering 100 μg/kg as effective dose in the minipig model, 60 kg): 300 to 1370 µg
- Total lung deposited dose in a 60 kg human, interspecies difference in protein binding considered [1, 3]: 41 µg
- Total lung deposited dose in a 60 kg human, interspecies difference in protein binding not considered [1, 3]: 9 µg
- Total lung deposited dose in a 60 kg human, interspecies difference in protein binding considered [1, 4]: 137 µg
- Total lung deposited dose in a 60 kg human, interspecies difference in protein binding not considered [1, 4]: 30 µg
- Total lung deposited dose in a 60 kg human, interspecies difference in protein binding considered [1, 5]: 410 µg
- Total lung deposited dose in a 60 kg human, interspecies difference in protein binding not considered [1, 5]: 90 µg
- Total lung deposited dose in a 60 kg human, interspecies difference in protein binding considered [1, 6]: 1370 µg
- Total lung deposited dose in a 60 kg human, interspecies difference in protein binding not considered [1, 6]: 300 µg
- highest effective dose in the minipig model without systemic side effects (BP reduction) ([1]; nominal dose, inhaled): 100 µg/kg
- Relaxation (%) (timepoint at 70 min) Mean [2]: 72.2%
- Relaxation (%) (timepoint at 130 min) Mean [2]: 51.3%
